{"source": "ChEMBL document CHEMBL3132760", "about": "“Investigating -secretase protein interactions in live cells using active site-directed clickable dual-photoaffinity probes” (Medchemcomm, 2014)", "data": [{"molecular_target": "Gamma-secretase", "assay": "Inhibition of gamma-secretase (unknown origin) expressed in CHO cells expressing APP assessed as inhibition of amyloid beta 42 production", "format": "cell-based, Homo sapiens", "units": {"IC50": "nM"}, "values": [{"smiles": "C#CCCCCNC(=O)[C@H](Cc1ccccc1)NC(=O)[C@H](CC(C)C)NC(=O)[C@H](Cc1ccccc1)C[C@@H](O)[C@H](Cc1ccccc1)NC(=O)c1ccc(C(=O)c2ccccc2)cc1", "IC50": "> 1000"}, {"smiles": "C#CCCCCNC(=O)[C@H](Cc1ccc(C(=O)c2ccccc2)cc1)NC(=O)[C@H](CC(C)C)NC(=O)[C@H](Cc1ccccc1)C[C@@H](O)[C@H](Cc1ccccc1)NC(=O)c1ccc(C(=O)c2ccccc2)cc1", "IC50": 180}, {"smiles": "C#CCOc1ccc(C(=O)c2ccc(OCCOCCOCCNC(=O)[C@H](Cc3ccccc3)NC(=O)[C@H](CC(C)C)NC(=O)[C@H](Cc3ccccc3)C[C@@H](O)[C@H](Cc3ccccc3)NC(=O)OC(C)(C)C)cc2)cc1", "IC50": 1}, {"smiles": "C#CCCCC(=O)Nc1ccc(C(=O)c2ccc(NC(=O)COCCOCCOCC(=O)NCCCCCNC(=O)[C@H](Cc3ccccc3)NC(=O)[C@H](CC(C)C)NC(=O)[C@H](Cc3ccccc3)C[C@@H](O)[C@H](Cc3ccccc3)NC(=O)OC(C)(C)C)cc2)cc1", "IC50": 12}, {"smiles": "C#CCCCC(=O)Nc1ccc(C(=O)c2ccc(NC(=O)COCCOCCOCC(=O)NCCCOCCOCCOCCCNC(=O)[C@H](Cc3ccccc3)NC(=O)[C@H](CC(C)C)NC(=O)[C@H](Cc3ccccc3)C[C@@H](O)[C@H](Cc3ccccc3)NC(=O)OC(C)(C)C)cc2)cc1", "IC50": 23}, {"smiles": "C#CCOc1ccc(C(=O)c2ccc(OCCOCCOCCNC(=O)[C@H](Cc3ccc(C(=O)c4ccccc4)cc3)NC(=O)[C@H](CC(C)C)NC(=O)[C@H](Cc3ccccc3)C[C@@H](O)[C@H](Cc3ccccc3)NC(=O)OC(C)(C)C)cc2)cc1", "IC50": 1.5}, {"smiles": "C#CCCCC(=O)Nc1ccc(C(=O)c2ccc(NC(=O)COCCOCCOCC(=O)NCCCCCNC(=O)[C@H](Cc3ccc(C(=O)c4ccccc4)cc3)NC(=O)[C@H](CC(C)C)NC(=O)[C@H](Cc3ccccc3)C[C@@H](O)[C@H](Cc3ccccc3)NC(=O)OC(C)(C)C)cc2)cc1", "IC50": 33}, {"smiles": "C#CCCCC(=O)Nc1ccc(C(=O)c2ccc(NC(=O)COCCOCCOCC(=O)NCCCOCCOCCOCCCNC(=O)[C@H](Cc3ccc(C(=O)c4ccccc4)cc3)NC(=O)[C@H](CC(C)C)NC(=O)[C@H](Cc3ccccc3)C[C@@H](O)[C@H](Cc3ccccc3)NC(=O)OC(C)(C)C)cc2)cc1", "IC50": 20}]}]}
